Where two headings read alike, the source gives them in different places. Some results are limits rather than exact numbers.

In this assay the target is BRD4 (Homo sapiens, UniProt O60885). In words: biochemical. The format is binding. The conditions noted are these: one of the FRET assays described.

On to `[2H]C([2H])([2H])c1nnn(C)c1-c1cc2c(cc1F)c1ncc(C(C)(C)O)cc1n2C(c1cc(C)ccn1)C1CCOCC1` (single isomer, unassigned) [Example 52, 2-{8-fluoro-7-[4-(^2H3)methyl-1-methyl-1H-1,2,3-triazol-5-yl]-5-[(4-methylpyridin-2-yl)(oxan-4-yl)methyl]-5H-pyrido[3,2-b]indol-3-yl}propan-2-ol], for which the half-inhibitory concentration (IC50) (read-out: FRET BRD4 IC50) was below 5 nM. On the same count and under the same terms, as for `[2H]C([2H])([2H])c1nnn(C)c1-c1cc2c(cc1F)c1ncc(C(C)(C)O)cc1n2C(c1ncccc1OC)C1CCOCC1` (single isomer, unassigned) [Example 41, 2-{8-fluoro-5-[(3-methoxypyridin-2-yl)(oxan-4-yl)methyl}-7-[4-(^2H3)methyl-1-methyl-1H-1,2,3-triazol-5-yl]-5H-pyrido[3,2-b]indol-3-yl]propan-2-ol], the figure is below 5 nM; as for `[2H]C([2H])([2H])c1nnn(C)c1-c1cc2c(cc1F)c1ncc(C(C)(C)O)cc1n2C(c1ccccc1)C1(C)COC1` (single isomer, unassigned) [Example 64, 2-{8-fluoro-7-[4-(^2H3)methyl-1-methyl-1H-1,2,3-triazol-5-yl]-5-[(3-methyloxetan-3-yl)(phenyl)methyl]-5H-pyrido[3,2-b]indol-3-yl}propan-2-ol], below 5 nM; as for `[2H]C([2H])([2H])c1nnn(C)c1-c1cc2c(cc1F)c1ncc(C(C)(C)O)cc1n2C(CCC)c1ncccc1F` (single isomer, unassigned) [Example 38, 2-{8-fluoro-5-[1-(3-fluoropyridin-2-yl)butyl]-7-[4-(^2H3)methyl-1-methyl-1H-1,2,3-triazol-5-yl}-5H-pyrido[3,2-b]indol-3-yl]propan-2-ol], below 1 nM. Still for that read-out and setting: the value for `[2H]C([2H])([2H])c1nnn(C)c1-c1cc2c(cc1Cl)c1ncc(C(C)(C)O)cc1n2C(c1ncccc1F)C1CCOCC1` (single isomer, unassigned) [Example 76, 2-{8-Chloro-5-[(3-fluoropyridin-2-yl)(oxan-4-yl)methyl]-7-[4-(^2H3)methyl-1-methyl-1H-1,2,3-triazol-5-yl]-5H-pyrido[3,2-b]indol-3-yl}propan-2-ol] was below 1500 nM.

For `[2H]C([2H])([2H])c1nnn(C)c1-c1cc2c(cc1F)c1ncc(C(C)(C)O)cc1n2C(c1ncccc1F)C1CCOCC1` (stereo not drawn) [Example 30, 2-{8-Fluoro-5-[(3-fluoropyridin-2-yl)(oxan-4-yl)methyl]-7-[4-(^2H3)methyl-1-methyl-1H-1,2,3-triazol-5-yl]-5H-pyrido[3,2-b]indol-3-yl}propan-2-ol], the IC50 (read-out: FRET BRD4 IC50) was below 1 nM. The same measure, in the same setting: as for `Cc1nnn(C)c1-c1cc2c(cc1F)c1ncc(C(C)(O)C3CC3)cc1n2[C@H](c1ccccc1F)C1CCOCC1` (single isomer, unassigned) [Example 24], the figure is below 5 nM. The same measure, in the same setting: as for `Cc1noc(C)c1-c1ccc2c3ncc(C(C)(C)O)cc3n([C@H](c3ccccc3)C3CCOCC3)c2c1F` [Example 17, 2-[7-(Dimethyl-1,2-oxazol-4-yl)-6-fluoro-5-[(S)-oxan-4-yl(phenyl)methyl]-5H-pyrido[3,2-b]indol-3-yl]propan-2-ol], the figure is below 5 nM; as for `Cc1nnn(C)c1-c1ccc2c3ncc(S(C)(=O)=O)cc3n([C@H](c3ccccc3)C3CCOCC3)c2c1` [Example 26, 5-{3-Methanesulfonyl-5-[(S)-oxan-4-yl(phenyl)methyl]-5H-pyrido[3,2-b]indol-7-yl}-1,4-dimethyl-1H-1,2,3-triazole], below 5 nM; as for `[2H]C([2H])([2H])c1nnn(C)c1-c1cc2c(cc1F)c1ncc(C(C)(C)O)cc1n2C(c1ccc(C)cn1)C1CCOCC1` (single isomer, unassigned) [Example 56, 2-{8-fluoro-7-[4-(^2H3)methyl-1-methyl-1H-1,2,3-triazol-5-yl]-5-[(5-methylpyridin-2-yl)(oxan-4-yl)methyl]-5H-pyrido[3,2-b]indol-3-yl}propan-2-ol], below 5 nM. On the same count and under the same terms, the value for `Cc1ccc2c(n1)c1ccc(-c3c(C)noc3C)cc1n2Cc1ccccc1` [Example 2, 4-{5-Benzyl-2-methyl-5H-pyrido[3,2-b]indol-7-yl}-3,5-dimethyl-1,2-oxazole] was below 1500 nM; that for `[2H]C([2H])([2H])c1nnn(C)c1-c1cc2c(cc1F)c1ncc(C(C)(C)O)cc1n2C(c1cc(C)on1)C1CCOCC1` (stereo not drawn) [Example 35, 2-{8-Fluoro-5-[(5-methyl-1,2-oxazol-3-yl)(oxan-4-yl)methyl]-7-[4-(^2H3)methyl-1-methyl-1H-1,2,3-triazol-5-yl]-5H-pyrido[3,2-b]indol-3-yl}propan-2-ol] was below 1500 nM; that for `Cc1nnn(C)c1-c1cc2c(cc1F)c1ncc(C(C)(C)O)cc1n2C(c1ncccn1)C1CCOCC1` (single isomer, unassigned) [Example 54] was below 5 nM. With `[2H]C([2H])([2H])c1nnn(C)c1-c1cc2c(cc1F)c1ncc(C(C)(C)O)cc1n2C(c1cc(OC)ccn1)C1CCOCC1` (single isomer, unassigned) [Example 50, 2-{8-fluoro-5-[(4-methoxypyridin-2-yl)(oxan-4-yl)methyl]-7-[4-(^2H3)methyl-1-methyl-1H-1,2,3-triazol-5-yl]-5H-pyrido[3,2-b]indol-3-yl}propan-2-ol], for the setting “read-out: FRET BRD4 IC50”, the IC50 is below 5 nM. In turn, `Cc1nnn(C)c1-c1ccc2c3ncc(C(C)(C)O)cc3n([C@H](c3ccccc3F)C3CCOCC3)c2c1` [Example 9, 2-[7-(dimethyl-1H-1,2,3-triazol-5-yl)-5-[(S)-(2-fluorophenyl)(oxan-4-yl)methyl]-5H-pyrido[3,2-b]indol-3-yl]propan-2-ol] gave an IC50 (FRET BRD4 IC50 (nM)) below 5 nM.

For the molecule `[2H]C([2H])([2H])c1nnn(C)c1-c1cc2c(cc1F)c1ncc(C(C)(C)O)cc1n2C(c1ccccc1)C1COC1` (single isomer, unassigned) [Example 68, 2-{8-fluoro-7-[4-(^2H3)methyl-1-methyl-1H-1,2,3-triazol-5-yl]-5-[oxetan-3-yl(phenyl)methyl]-5H-pyrido[3,2-b]indol-3-yl}propan-2-ol], the IC50 (read-out: FRET BRD4 IC50) was below 1500 nM. Same read-out and setting: as for `[2H]C([2H])([2H])c1nnn(C)c1-c1ccc2c3ncc(S(C)(=O)=O)cc3n([C@H](c3ccccc3)C3CCOCC3)c2c1` [Example 27, 5-{3-Methanesulfonyl-5-[(S)-oxan-4-yl(phenyl)methyl]-5H-pyrido[3,2-b]indol-7-yl}-4-(^2H3)methyl-1-methyl-1H-1,2,3-triazole], the figure is below 5 nM. Same read-out and setting: the value for `[2H]C([2H])([2H])c1nnn(C)c1-c1cc2c(cc1F)c1ncc(C(C)(C)O)cc1n2C(c1ncccc1F)C1CCOCC1` (stereo not drawn) [Example 31, 2-{8-Fluoro-5-[(3-fluoropyridin-2-yl)(oxan-4-yl)methyl]-7-[4-(^2H3)methyl-1-methyl-1H-1,2,3-triazol-5-yl]-5H-pyrido[3,2-b]indol-3-yl}propan-2-ol] was below 5 nM; that for `[2H]C([2H])([2H])c1nnn(C)c1-c1cc2c(cc1F)c1ncc(C(C)(C)O)cc1n2C(c1ccccc1)C1(C)COC1` (single isomer, unassigned) [Example 65, 2-{8-fluoro-7-[4-(^2H3)methyl-1-methyl-1H-1,2,3-triazol-5-yl]-5-[(3-methyloxetan-3-yl)(phenyl)methyl]-5H-pyrido[3,2-b]indol-3-yl}propan-2-ol] was below 1500 nM. Still for that read-out and setting: the value for `Cc1nnn(C)c1-c1ccc2c3ncc(C(=O)O)cc3n([C@H](c3ccccc3F)C3CCOCC3)c2c1` [Example 29, 7-(Dimethyl-1H-1,2,3-triazol-5-yl)-5-[(S)-(2-fluorophenyl)(oxan-4-yl)methyl]-5H-pyrido[3,2-b]indole-3-carboxylic acid] was below 5 nM. Consider `[2H]C([2H])([2H])c1nnn(C)c1-c1ccc2c3ncc(C(C)(C)O)cc3n(C(c3ncccc3F)C3CCOCC3)c2c1F` (single isomer, unassigned) [Example 84, 2-{6-Fluoro-5-[(3-fluoropyridin-2-yl)(oxan-4-yl)methyl]-7-[4-(^2H3)methyl-1-methyl-1H-1,2,3-triazol-5-yl]-5H-pyrido[3,2-b]indol-3-yl}propan-2-ol], for which the IC50 (read-out: FRET BRD4 IC50) is below 5 nM. Still for that read-out and setting: the value for `[2H]C([2H])([2H])c1nnn(C)c1-c1cc2c(cc1Cl)c1ncc(C(C)(C)O)cc1n2C(CCC)c1ncccc1F` (single isomer, unassigned) [Example 83, 2-{8-chloro-5-[1-(3-fluoropyridin-2-yl)butyl]-7-[4-(^2H3)methyl-1-methyl-1H-1,2,3-triazol-5-yl]-5H-pyrido[3,2-b]indol-3-yl}propan-2-ol] was below 5 nM; that for `[2H]C([2H])([2H])c1nnn(C)c1-c1cc2c(cc1F)c1ncc(C(C)(C)O)cc1n2C(c1ncccc1C)C1CCOCC1` (single isomer, unassigned) [Example 43, 2-{8-fluoro-7-[4-(^2H3)methyl-1-methyl-1H-1,2,3-triazol-5-yl]-5-[(3-methylpyridin-2-yl)(oxan-4-yl)methyl}-5H-pyrido[3,2-b]indol-3-yl]propan-2-ol] was below 5 nM.

As for `[2H]C([2H])([2H])c1onc(C)c1-c1cc2c(cc1F)c1ncc(C(C)(C)O)cc1n2[C@H](c1ccccc1)C1CCOCC1` [Example 33, 2-{8-Fluoro-7-[5-(^2H3)methyl-3-methyl-1,2-oxazol-4-yl]-5-[(S)-(oxan-4-yl)(phenyl)methyl]-5H-pyrido[3,2-b]indol-3-yl}propan-2-ol], the IC50 (read-out: FRET BRD4 IC50) was below 1 nM. Still for that read-out and setting: the value for `[2H]C([2H])([2H])c1nnn(C)c1-c1cc2c(cc1F)c1ncc(C(C)(C)O)cc1n2C(c1ncccn1)C1CCOCC1` (single isomer, unassigned) [Example 46] was below 5 nM; that for `[2H]C([2H])([2H])c1nnn(C)c1-c1cc2c(cc1F)c1ncc(C(C)(C)O)cc1n2C(c1ccccn1)C1CCOCC1` (single isomer, unassigned) [Example 36, 2-{8-fluoro-7-[4-(^2H3)methyl-1-methyl-1H-1,2,3-triazol-5-yl}-5-[oxan-4-yl(pyridin-2-yl)methyl]-5H-pyrido[3,2-b]indol-3-yl]propan-2-ol] was below 1 nM. Same read-out and setting: as for `[2H]C([2H])([2H])c1nnn(C)c1-c1cc2c(cc1Cl)c1ncc(C(C)(C)O)cc1n2[C@H](c1ccccc1)C1CCOCC1` [Example 77, 2-{8-chloro-7-[4-(^2H3)methyl-1-methyl-1H-1,2,3-triazol-5-yl]-5-[(S)-oxan-4-yl(phenyl)methyl]-5H-pyrido[3,2-b]indol-3-yl}propan-2-ol], the figure is below 1500 nM.
